Patent US20160051493A1, “METHODS OF TREATMENT OF KERATINOCYTE-DERIVED LESIONS” (THE TRUSTEES OF COLUMBIA UNIVERSITY IN THE CITY OF NEW YORK, priority 2012, published 2016)
“Also recorded” adds a separate entry of the source.

How the values were obtained:
[1] = tested on: normal human epidermal keratinocytes; assay: Ratiometric fura-2 live-cell calcium imaging of keratinocytes; assay type: cell-based
Protocol: (§1) Normal human keratinocytes were isolated from human foreskins by undergoing two enzymatic dissociation steps, first in dispase then in trypsin. Cells were cultured in EpiLife supplemented with human keratinocyte growth supplement (HKGS; Invitrogen). For all experiments with undifferentiated cells, keratinocytes were harvested or images at ˜75% confluency. Differentiation was induced by adding CaCl2 to the EpiLife media to reach a final [Ca2+] of 1.2 mM. Cells were typically cultured for 3 days under differentiation conditions before they were assayed. Keratinocytes were cultured for <5 passages. Purified Camphor (CAS #76-22-2), 2-APB (Tocris) or vehicle (1% EtOH)-containing media were used as indicated.
(§2) Human keratinocytes and SCC cells were washed in Ringer's solution (in mM: NaCl 140, KCl 5, D-glucose 10, HEPES 10, CaCl2 2, MgCl2 2, pH 7.2) and loaded with 5 μM fura-2AM and 1 μM pluronic (Invitrogen) for 30 minutes in the dark. During live-cell imaging, saturating concentrations of TRP agonists (10 mM Camphor, 100 μM 2-APB 1 μM Capsaicin, 300 μM Mustard oil or 3 μM 4αPDD) in Ringer's were used. Cells were imaged for 20 s to establish a baseline and then acutely treated with each agonist for 60 seconds. Imaging was performed on an Olympus IX81 microscope with a 20× (NA 0.17) objective and a Hamamatsu ORCA-R2 camera. 340- and 380-nm excitation and 540-nm emission filters were used to capture fura-2 fluorescence. Data are expressed as a ratio of fluorescent signals (340/380). All data acquisition was performed in MetaFluor. Data analysis was performed with custom algorithms in IgorPro. Cells with baseline levels ±2 SD above the mean were excluded from analysis as unhealthy. Responders were designated as cells whose 340/380 ratio was ≧20% above baseline.
TRP channels are selectively activated by endogenous and exogenous ligands at micromolar to millimolar concentrations. Since TRP channel activity increases over this range to allow graded Ca^2+ influx, receptor activity levels can be monitored by live-cell Ca^2+ imaging. A ratiometric calcium indicator (Fura-2) was employed to determine whether a panel of TRP-channel agonists elicited cytoplasmic calcium increases in human epidermal keratinocytes. (FIG. 1A-1E, FIG. 2A-2B, and Table 3).
Normal human keratinocytes were cultured in low-calcium media to promote proliferation or in 1.2-mM calcium media to induce differentiation. For live-cell imaging, keratinocytes were then washed and bathed in Ringer's solution containing 2 mM calcium so that calcium signals could be directly compared between cell populations.
In keratinocytes, increased intracellular calcium stimulates the terminal differentiation process. To determine whether camphor oil and its abundant constituents are directly bioactive on epithelial keratinocytes, a ratiometric Ca2+ indictor (Fura-2) was employed to test whether a panel of terpenes elicited cytoplasmic Ca2+ increases in undifferentiated human epidermal keratinocytes (FIG. 19A-19C). Keratinocytes were cultured according to our standard methods. For live-cell imaging, keratinocytes were bathed in Ringer's solution containing 2 mM Ca2+.

SCC-13 cells = assay: Live-cell calcium imaging of SCC cell line SCC-13; assay type: cell-based, human; conditions: 10 mM camphor; compared with proliferating keratinocytes
Protocol: as §2
(§3) Moreover, their responses to camphor mirror their respective levels of TRP channel expression.

SCC-39 cells = assay: Live-cell calcium imaging of SCC cell line SCC-39; assay type: cell-based, human; conditions: 10 mM camphor; compared with SCC-13 cells
Protocol: as §2, §3

[2] = tested on: normal human keratinocytes; assay: Keratinocyte cell counts (DAPI), morphology and EdU proliferation assay after 24 h treatment; conditions: 24 hours
Protocol: as §1
Cells were treated with 2-APB or camphor for 24 hours at 37° C., exposed to EdU for 45 min, fixed and stained with DAPI for cell counting. EdU Click-It assays (Invitrogen) were used to assess cell-cycle entry. The cells were then fixed and stained with DAPI. Three fields per well were assayed via a 20× objective and there were 4 wells per treatment in each experiment. EdU=5-ethynyl-2′-deoxyuridine.
As Ca^2+ triggers the commitment switch from proliferation to differentiation in keratinocytes, it was reasoned that increasing intracellular calcium by incubating keratinocytes in TRP agonists might be sufficient to induce this cell-fate switch in low-calcium growth media. To test this hypothesis, normal human keratinocytes were cultured for 24 hours under low-Ca^2+ conditions in the presence of low (12.5 μM), half-maximal (50 μM) and saturating (100 μM) concentrations of 2-APB (FIG. 3A) or camphor (0-8 mM) (FIG. 3E). These TRP agonists were chosen because they reliably elicited intracellular calcium signaling in normal human keratinocytes (FIG. 1A-1E).
As camphor can activate both TRPV3 and TRPV1 channels, these experiments were repeated in the presence of a specific TRPV1 antagonist, AMG-9810 (Gavva et al., 2005).

keratin 10 (K10) = assay: Western blot of keratin 10 in epidermal lysates after topical camphor; assay type: in vivo, FVB mice; conditions: 5 days
Protocol: To determine whether topical camphor treatment promotes keratinocyte differentiation in vivo, a separate cohort of adult female FVB mice were treated twice daily for a period of 5 days with increasing concentrations of topical camphor (0, 15%, 20% or 30% (wt/wt) camphor in acetone; N=3-4 mice per group). One day after the final topical dose, mice were sacrificed and epidermal lysates were prepared for immunoblot analysis according to standard protocols (Owens et al., J. Invest. Dermatol. 1996). […] Protein levels were detected by peroxidase activated luminol exposure to X-ray film and estimated by densitometry using NIH-Image J software. Levels of K10 were normalized to levels of beta-tubulin for each sample; therefore, data are expressed as the ratio of K10 to beta-tubulin (K10/beta-tubulin). […]
To determine whether topical camphor treatment promotes keratinocyte differentiation in vivo, adult female FVB mice (n=3-4 per group) were treated twice daily for a period of 5 days with increasing concentrations of topical camphor (15%, 20% or 30% (wt/wt)) or vehicle only. […] It was determined that topical camphor treatment upregulates levels of a keratinocyte terminal differentiation marker in vivo.

TRPV3 = conditions: Activation; cited from earlier work
TRPV1 = TRPV1 (Rattus norvegicus, UniProt O35433); conditions: Activation; cited from earlier work
TRPA1 = conditions: Inhibition; read-out: Effective concentration IC50; cited from earlier work
[3] = cited from earlier work
[4] = cited from earlier work; remark: listed apart in the source
[5] = cited from earlier work; remark: listed apart in the source
skin tumors = conditions: mouse, in vivo; cited from earlier work
DNA = conditions: cited from earlier work

Chain of TRPV1 (O35433 whole entry): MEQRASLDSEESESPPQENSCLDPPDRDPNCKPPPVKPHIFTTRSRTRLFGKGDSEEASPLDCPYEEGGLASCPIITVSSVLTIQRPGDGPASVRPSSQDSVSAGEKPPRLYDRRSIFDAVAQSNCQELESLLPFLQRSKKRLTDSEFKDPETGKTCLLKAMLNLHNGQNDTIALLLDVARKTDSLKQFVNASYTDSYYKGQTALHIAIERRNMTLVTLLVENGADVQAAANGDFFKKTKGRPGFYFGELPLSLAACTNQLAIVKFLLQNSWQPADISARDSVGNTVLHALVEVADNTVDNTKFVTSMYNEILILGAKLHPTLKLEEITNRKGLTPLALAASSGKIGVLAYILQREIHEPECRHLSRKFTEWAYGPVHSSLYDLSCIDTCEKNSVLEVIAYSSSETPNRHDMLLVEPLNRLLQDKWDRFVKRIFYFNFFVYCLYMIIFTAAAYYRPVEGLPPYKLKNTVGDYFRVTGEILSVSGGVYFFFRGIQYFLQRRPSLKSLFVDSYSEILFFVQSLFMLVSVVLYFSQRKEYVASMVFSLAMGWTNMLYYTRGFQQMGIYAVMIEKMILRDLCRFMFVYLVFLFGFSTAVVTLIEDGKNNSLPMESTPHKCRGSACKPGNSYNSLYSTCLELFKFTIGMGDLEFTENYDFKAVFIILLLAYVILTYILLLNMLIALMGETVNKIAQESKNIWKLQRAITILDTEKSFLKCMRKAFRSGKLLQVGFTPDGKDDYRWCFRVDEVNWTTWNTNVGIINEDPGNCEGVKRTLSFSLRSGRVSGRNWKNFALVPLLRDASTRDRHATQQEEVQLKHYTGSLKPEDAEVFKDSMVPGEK

| Compound | proportion of cells showing Ca2+ increases, differentiated versus proliferating keratinocytes ([1]; 10 mM camphor) [fold] | % Responders (differentiated) Mean ± SEM ([1]; differentiated in 1.2 mM Ca2+, responders F340:F380 increase ≧20%, 4αPDD 3 μM, camphor 10 mM, 2-APB 100 μM) [%] | magnitude of camphor-evoked responses, increase over baseline ([1]; differentiated keratinocytes) [%] | magnitude of camphor-evoked responses, increase over baseline ([1]; growth conditions) [%] | % Responders (undifferentiated) Mean ± SEM or SD ([1]; growth conditions, responders F340:F380 increase ≧20%, saturating agonist (4αPDD 3 μM, camphor 10 mM, 2-APB 100 μM, capsaicin 1 μM, mustard oil 300 μM), SD for capsaicin and mustard oil) [%] | camphor-evoked cytoplasmic calcium signals (SCC-13 cells) | camphor-evoked calcium responses (SCC-39 cells) | concentration that arrests proliferation without inducing necrotic changes [2] [mM] | expression of K10 (keratin 10 (K10); 15%, 20% or 30% (wt/wt) topical twice daily) | K10 protein levels (K10/beta-tubulin) versus lower concentrations or vehicle (keratin 10 (K10); 30% (wt/wt) topical twice daily) | Effective concentration Range (TRPV3) | Effective concentration Range (TRPV1) | IC50 (TRPA1) [µM] | solubility in water [3] | sensation on skin of volunteers ([4]; 20% solution in alcohol, normal skin temperatures (Green 1990)) | doses reported to cause skin irritation as well as toxicity when ingested ([4]; in vivo) [%] | absorption ([5]; after inhalation or dermal exposure (Baselt and Cravey 1990)) | plasma concentrations ([5]; low-dose (46.80 mg) dermal application (Martin et al. 2004)) | Results of safety: against skin tumors in mice (skin tumors) | Results of safety: DNA defects (DNA) |
| --- | --- | --- | --- | --- | --- | --- | --- | --- | --- | --- | --- | --- | --- | --- | --- | --- | --- | --- | --- | --- |
| CC12CCC(CC1=O)C2(C)C (racemic) [Camphor, 1,7,7 Trimethylbicyclo[2.2.1]heptan-2-one] | 5.7 | 37.5 ± 15.7 | 78±1 | 55±1 | 6.5 ± 2.8 | increased | significantly fewer | 4 to 8 | increased with camphor treatment in a dose-dependent manner; also recorded: upregulates | significantly higher | Range = 2-10 mM | Range = 1-10 mM | 68 | slightly soluble | no significant sensation of irritation or pain | > 20 | well absorbed | low plasma concentrations |  |  |
| Nc1ccc(C(=O)O)cc1 [p-Aminobenzoic acid] |  |  |  |  |  |  |  |  |  |  |  |  |  |  |  |  |  |  | Protects | increase |
